Data from article PMC12458545, “Repurposing a Detrimental Antibody Epitope as Targeted Therapeutics for Sepsis and Rheumatoid Arthritis” (Research Square, 2025).
Entries after “also recorded” stand apart in the source; their conditions may differ.

Test system: human PBMCs
Assay: HMGB1-induced cytokine/chemokine secretion, Cytokine Antibody Arrays
Assay type: cell-based
Conditions: P2–1 5 or 10 μg/ml, HMGB1 0.5 or 2.0 μg/ml, 16 h
Experimental: Human blood was purchased from the New York Blood Center (Long Island City, NY, USA), and PBMCs were isolated by density gradient centrifugation through Ficoll (Ficoll-Paque PLUS) as previously described,[30]. PBMCs were cultured in RPMI-1640 supplemented with 10% human serum, 2 mM L-glutamine, 100 U/mL penicillin, and 100 μg/mL streptomycin (all from Invitrogen). For experiments, PBMCs were stimulated with recombinant human HMGB1 (0.5 or 2.0 μg/ml) for 16 hours, either alone or in combination with P2–1 at 5.0 or 10.0 μg/ml. Cell-free supernatants were collected for analysis of cytokines/chemokines levels by Cytokine Antibody Arrays, or pCTS-L levels by Western blotting analysis as described.
Levels of cytokines and chemokines in mouse serum and joint tissue lysates, or human PBMC culture supernatants were determined using murine or human Cytokine Antibody Arrays (e.g., Cat. No. M0308003 or Cat. No. AAH-CYT-3–4, RayBiotech Inc., Norcross, GA, USA) as previously described,[30],[86],[87]. Serum samples were collected from mice at 24 h post-CLP. The soft tissue of the hindpaw and ankle joints was carefully collected using a previously described protocol. Briefly, 0.5 g of fresh soft tissue was cut into 3 mm pieces, and mixed with 400 μL of a hypertonic solution (500 mL PBS with 4.5 g NaCl and 2× protease inhibitor cocktail) in a 10 mL syringe. Mechanical extrusion, involving 30 rapid back-and-forth movements of the plunger, was then performed. The expelled extracellular fluid was collected, immediately aliquoted, and stored at −20°C until analysis. Cell-conditioned medium was collected from PBMC cultures after 16 h of stimulation. Arrays were performed according to the manufacturer’s protocol, followed by chemiluminescent detection and densitometric quantification as previously described,[30].

Q: Which “HMGB1-induced cytokine/chemokine secretion (words)” value does the source give for “54-TKVH(Nle)KSFLAFQTKT-69 [P2–1, water-soluble derivative of TN peptide P2 with Met to Norleucine and Cys to Ser substitutions]” here?
A: The value was “did not affect the secretion of these HMGB1-induced cytokines and chemokines; also recorded: did not broadly inhibit the secretion of these HMGB1-induced cytokines and chemokines”.

Q: What about the “HMGB1-induced cytokine/chemokine secretion (words)” value (listed as P2-1) of the same substance?
A: Its value is “does not broadly inhibit”.
